Data taken from PubChem BioAssay (NCI).
In brackets after ≈: the same amount, converted by molar mass.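 Cultured in 96-well plates, cells were exposed to test compound for 48 hours across five concentrations. The concentration for 50% growth inhibition is given as GI50. TGI denotes the concentration required for complete inhibition of growth.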

Columns and labels:
Test in all cases: NCI tumour cell line growth inhibition, 48 h
786-0 renal = test system: 786-0 renal
A498 renal = test system: A498 renal
A549 NSCLC = test system: A549 NSCLC
ACHN renal = test system: ACHN renal
BT-549 breast = test system: BT-549 breast
CAKI-1 renal = test system: CAKI-1 renal
CCRF-CEM leukemia = test system: CCRF-CEM leukemia
DU-145 prostate = test system: DU-145 prostate
EKVX NSCLC = test system: EKVX NSCLC
HCC-2998 colon = test system: HCC-2998 colon
HCT-116 colon = test system: HCT-116 colon
HCT-15 colon = test system: HCT-15 colon
HL-60(TB) leukemia = test system: HL-60(TB) leukemia
HOP-62 NSCLC = test system: HOP-62 NSCLC
HOP-92 NSCLC = test system: HOP-92 NSCLC
HS 578T breast = test system: HS 578T breast
HT29 colon = test system: HT29 colon
IGROV1 ovarian = test system: IGROV1 ovarian
K-562 leukemia = test system: K-562 leukemia
M14 melanoma = test system: M14 melanoma
MALME-3M melanoma = test system: MALME-3M melanoma
MCF7 breast = test system: MCF7 breast
MOLT-4 leukemia = test system: MOLT-4 leukemia
NCI-H226 lung = test system: NCI-H226 lung
NCI-H23 lung = test system: NCI-H23 lung
NCI-H460 lung = test system: NCI-H460 lung
NCI/ADR-RES ovarian = test system: NCI/ADR-RES ovarian
OVCAR-3 ovarian = test system: OVCAR-3 ovarian
OVCAR-4 ovarian = test system: OVCAR-4 ovarian
OVCAR-5 ovarian = test system: OVCAR-5 ovarian
OVCAR-8 ovarian = test system: OVCAR-8 ovarian
RPMI-8226 leukemia = test system: RPMI-8226 leukemia
RXF 393 renal = test system: RXF 393 renal
SF-268 CNS = test system: SF-268 CNS
SK-MEL-2 melanoma = test system: SK-MEL-2 melanoma
SK-MEL-28 melanoma = test system: SK-MEL-28 melanoma
SK-MEL-5 melanoma = test system: SK-MEL-5 melanoma
SK-OV-3 ovarian = test system: SK-OV-3 ovarian
SNB-19 CNS = test system: SNB-19 CNS
SNB-75 CNS = test system: SNB-75 CNS
SR leukemia = test system: SR leukemia
SW-620 colon = test system: SW-620 colon
T-47D breast = test system: T-47D breast
TK-10 renal = test system: TK-10 renal
U251 CNS = test system: U251 CNS
UACC-62 melanoma = test system: UACC-62 melanoma
UO-31 renal = test system: UO-31 renal
LOX IMVI melanoma = test system: LOX IMVI melanoma
MDA-MB-231 breast = test system: MDA-MB-231 breast
MDA-MB-435 = test system: MDA-MB-435
PC-3 prostate = test system: PC-3 prostate
SF-295 CNS = test system: SF-295 CNS
SN12C renal = test system: SN12C renal

O=CNCNCCO
TGI (786-0 renal): > 100 µM
TGI (A498 renal): > 100 µM
TGI (A549 NSCLC): > 100 µM
TGI (ACHN renal): > 100 µM
TGI (BT-549 breast): > 100 µM
TGI (CAKI-1 renal): > 100 µM
TGI (CCRF-CEM leukemia): > 100 µM
TGI (DU-145 prostate): > 100 µM
TGI (EKVX NSCLC): > 100 µM
TGI (HCC-2998 colon): > 100 µM
TGI (HCT-116 colon): > 100 µM
TGI (HCT-15 colon): > 100 µM
TGI (HL-60(TB) leukemia): 72.8 µM
TGI (HOP-62 NSCLC): > 100 µM
TGI (HOP-92 NSCLC): > 100 µM
TGI (HS 578T breast): > 100 µM
TGI (HT29 colon): > 100 µM
TGI (IGROV1 ovarian): > 100 µM
TGI (K-562 leukemia): > 100 µM
TGI (M14 melanoma): > 100 µM
TGI (MALME-3M melanoma): > 100 µM
TGI (MCF7 breast): > 100 µM
TGI (MOLT-4 leukemia): > 100 µM
TGI (NCI-H226 lung): > 100 µM
TGI (NCI-H23 lung): > 100 µM
TGI (NCI-H460 lung): > 100 µM
TGI (NCI/ADR-RES ovarian): > 100 µM
TGI (OVCAR-3 ovarian): > 100 µM
TGI (OVCAR-4 ovarian): > 100 µM
TGI (OVCAR-5 ovarian): > 100 µM
TGI (OVCAR-8 ovarian): > 100 µM
TGI (RPMI-8226 leukemia): > 100 µM
TGI (RXF 393 renal): > 100 µM
TGI (SF-268 CNS): > 100 µM
TGI (SK-MEL-2 melanoma): > 100 µM
TGI (SK-MEL-28 melanoma): > 100 µM
TGI (SK-MEL-5 melanoma): > 100 µM
TGI (SK-OV-3 ovarian): > 100 µM
TGI (SNB-19 CNS): > 100 µM
TGI (SNB-75 CNS): > 100 µM
TGI (SR leukemia): > 100 µM
TGI (SW-620 colon): > 100 µM
TGI (T-47D breast): > 100 µM
TGI (TK-10 renal): > 100 µM
TGI (U251 CNS): > 100 µM
TGI (UACC-62 melanoma): > 100 µM
TGI (UO-31 renal): > 100 µM

ClCCN(CCCl)c1ccc(/C=N/Nc2ccnc3ccccc23)cc1
TGI (A498 renal): 46.7 µM
TGI (A549 NSCLC): 3.38 µM
TGI (ACHN renal): 3.37 µM
TGI (CAKI-1 renal): 3.8 µM
TGI (DU-145 prostate): 3.5 µM
TGI (HCT-15 colon): 2.86 µM
TGI (HOP-62 NSCLC): 4.75 µM
TGI (HOP-92 NSCLC): 3.38 µM
TGI (HS 578T breast): 5.1 µM
TGI (K-562 leukemia): 3.15 µM
TGI (LOX IMVI melanoma): 3.09 µM
TGI (MALME-3M melanoma): 3.19 µM
TGI (MCF7 breast): > 100 µM
TGI (MDA-MB-231 breast): 3.45 µM
TGI (MDA-MB-435): 3.14 µM
TGI (NCI-H226 lung): 3.48 µM
TGI (NCI-H23 lung): 3.89 µM
TGI (NCI-H460 lung): > 100 µM
TGI (PC-3 prostate): 2.99 µM
TGI (RPMI-8226 leukemia): 3.97 µM
TGI (SF-295 CNS): 2.99 µM
TGI (SK-MEL-5 melanoma): 3.47 µM
TGI (SN12C renal): 3.18 µM
TGI (SW-620 colon): 4.48 µM
TGI (TK-10 renal): 3.15 µM
TGI (U251 CNS): 3.03 µM
TGI (UACC-62 melanoma): 3.23 µM

CC(NC(=O)C(N)CCC(=O)O)C(=O)NCP(=O)(O)O (stereo not given)
GI50 (M14 melanoma): 15.9 µg/mL (≈ 51.1 µM)
